Results reported in patent publication US20130251678A1, “BID DOSAGE REGIMEN FOR DEB025” (NOVARTIS AG, priority 2010, published 2013).

How the values were obtained:
Type in all cases: in vivo, human
HCV Genotype 1 [1] = test: Phase 2 study of genotype 1 treatment-naive patients: sustained virologic response (SVR); settings: 600 mg BID for one week followed by 600 mg QD, 48 week treatment duration, combined with peg-IFNα2a
Source text: The virological response parameters are: rapid virologic response at treatment week 4 (RVR 4) defined by undetectable serum HCV-RNA at treatment week 4; early virological response (EVR), defined by at least 2 log10 IU/mL reduction in HCV-RNA compared to baseline (partial EVR) or undetectable serum HCV-RNA (complete EVR) at treatment week 12; sustained virological response (SVR24), defined as absence of HCV-RNA from serum by a sensitive Polymerase Chain Reaction (PCR) assay 24 weeks following end of therapy or the HCV RNA is undetectable (by LOD) 24 weeks after end of treatment; End of Treatment Response (ETR): HCV RNA undetectable (by LOD) at treatment end (completed or prematurely discontinued).

HCV Genotype 1 [2] = test: Clinical study in HCV Genotype 1 non responder patients: decline in HCV RNA from baseline; settings: with peg-IFNα2a plus RBV
Source text: HCV RNA levels can be measured using commercially available methods. As used herein, LOD means limit of detection and LOQ means limit of quantification of HCV RNA levels. For example, when using the COBAS® TaqMan® HCV Test, v2.0 (Roche Diagnostics) for assessment of HCV RNA levels, LOQ of 25 IU/ml (1.398 log10) and LOD of 10 IU/ml (1 log10) have been reported.
The efficacy of the therapy regimen may be monitored using standard protocols. Treatment may be followed by determinations of HCV in serum and measurement of serum ALT (alanine-aminotransferase) levels. For example, the patients may be assessed for the presence of HCV RNA in their plasma. HCV RNA (IU/mL) can be measured at regular intervals during the treatment, e.g., at Day 1 (pre-dose and 4, 8, and 12 hours post-dose) and pre-dose at Day 2, Day 3, Day 8, Day 15, Day 29, and at Week 12, Week 24, Week 36, Week 48, Week 72 (when applicable), and at follow up. In addition, the HCV strains in the patient can be sequenced and assessed for identification of mutations selecting for resistance.
In this hard to treat patient population, the 400 mg BID dose provided greater decline in HCV RNA from baseline (−1.41 log10 IU/ml) than the 800 mg QD dose (−0.70 log10 IU/ml). […]

[3] = Observed alisporivir Cmin in the HCV Genotype 1 non responder patient study; settings: first week of treatment
Source text: As used herein, AUC refers to Area Under the Curve in [hr ng/mL] or area under the concentration vs time curve indicating the integrated quantity of analyte or drug (the serum concentration curve) after dosing; Cmax refers to the maximum concentration of the analyte or drug in [ng/mL] achieved after dosing; Cmin refers to the minimum concentration of the analyte or drug in [ng/mL] achieved after dosing

C/C=C/C[C@@H](C)[C@@H](O)[C@H]1C(=O)N[C@@H](CC)C(=O)N(C)[C@H](C)C(=O)N(CC)[C@@H](C(C)C)C(=O)N[C@@H](C(C)C)C(=O)N(C)[C@@H](CC(C)C)C(=O)N[C@@H](C)C(=O)N[C@H](C)C(=O)N(C)[C@@H](CC(C)C)C(=O)N(C)[C@@H](CC(C)C)C(=O)N(C)[C@@H](C(C)C)C(=O)N1C [alisporivir, Alisporivir]
rates of achievement of sustained virologic response (SVR) versus peg-IFNα2a (HCV Genotype 1 [1]): superior
decline in HCV RNA from baseline (HCV Genotype 1 [2]; 400 mg BID during first week of treatment): −1.41 log10 IU/ml
decline in HCV RNA from baseline (HCV Genotype 1 [2]; 800 mg QD during first week of treatment): −0.70 log10 IU/ml
median observed Cmin ([3]; 400 mg BID): 175 ng/mL
median observed Cmin ([3]; 800 mg QD): 148 ng/mL
